Measurements as given in the CheMixHub viscosity set.
Where “and” joins values, the source holds several entries; their conditions need not be identical. Equal values may be shown once. ± gives the uncertainty stated by the source. Each block holds one compound with its values, some of them ahead of it.

Legend:
[1] = xn = mol fraction of the nth substance listed; conditions: 101.3 kPa

SMILES: C1C[C@@H]2[C@H]3CC[C@H](C3)[C@@H]2C1
viscosity (293.15 K, 100 kPa): 2.974 ± 0.065 mPa·s and 3.07 ± 0.31 mPa·s | viscosity (298.15 K, 100 kPa): 2.785 ± 0.025 mPa·s and 2.694 ± 0.059 mPa·s | viscosity (298.15 K, 101 kPa): 2.77 ± 0.042 mPa·s | viscosity (298.15 K, 101.33 kPa): 2.769 ± 0.17 mPa·s | viscosity (303.15 K, 100 kPa): 2.535 ± 0.023 mPa·s and 2.454 ± 0.054 mPa·s | viscosity (308.15 K, 100 kPa): 2.243 ± 0.049 mPa·s | viscosity (308.15 K, 101.33 kPa): 2.283 ± 0.14 mPa·s

SMILES: CC(=O)C=C(C)C
viscosity (298.15 K, 101 kPa): 0.876 ± 0.011 mPa·s

viscosity (298.15 K, 101 kPa): 2.6 ± 0.05 mPa·s | viscosity (303.15 K, 101 kPa): 2.066 ± 0.062 mPa·s | viscosity (308.15 K, 101 kPa): 1.856 ± 0.056 mPa·s | viscosity (313.15 K, 101 kPa): 1.676 ± 0.051 mPa·s | viscosity (318.15 K, 101 kPa): 1.73 ± 0.04 mPa·s
SMILES: CC12CCC(CC1)C(C)(C)O2

SMILES: CCC(=O)O
viscosity (293.15 K, 101 kPa): 1.1 ± 0.01 mPa·s and 1.07 ± 0.023 mPa·s and 1.102 ± 0.028 mPa·s | viscosity (293.15 K, 101.33 kPa): 1.103 ± 0.054 mPa·s and 1.156 ± 0.012 mPa·s and 1.101 ± 0.03 mPa·s | viscosity (298.15 K, 101.33 kPa): 1.03 ± 0.05 mPa·s | viscosity (303.15 K, 101.33 kPa): 0.96 ± 0.05 mPa·s and 0.944 ± 0.026 mPa·s | viscosity (313.15 K, 101.33 kPa): 0.8453 ± 0.043 mPa·s and 0.901 ± 0.009 mPa·s and 0.84 ± 0.04 mPa·s | viscosity (318.15 K, 101.33 kPa): 0.783 ± 0.021 mPa·s | viscosity (323.15 K, 101 kPa): 0.75 ± 0.01 mPa·s | viscosity (323.15 K, 101.33 kPa): 0.8102 ± 0.041 mPa·s

viscosity (293.15 K, 102 kPa): 0.932 ± 0.021 mPa·s | viscosity (303.15 K, 102 kPa): 0.812 ± 0.021 mPa·s | viscosity (313.15 K, 102 kPa): 0.712 ± 0.021 mPa·s | viscosity (323.15 K, 102 kPa): 0.632 ± 0.021 mPa·s
SMILES: CCC(C)c1ccccc1 (configuration not stated)

viscosity (293.15 K, 100 kPa): 1.8 ± 0.08 mPa·s and 1.803 mPa·s | viscosity (298.15 K, 100 kPa): 1.71 ± 0.037 mPa·s | viscosity (298.15 K, 103 kPa): 1.63 ± 0.042 mPa·s | viscosity (308.15 K, 103 kPa): 1.356 ± 0.042 mPa·s | viscosity (318.15 K, 100 kPa): 1.215 ± 0.026 mPa·s | viscosity (318.15 K, 103 kPa): 1.146 ± 0.041 mPa·s
SMILES: CCCCCCCCCCCCC
viscosity (308.15 K, 100 kPa): 1.428 ± 0.031 mPa·s and 1.319 ± 0.13 mPa·s | viscosity (323.15 K, 100 kPa): 1.124 ± 0.024 mPa·s and 1.1 ± 0.05 mPa·s and 1.104 mPa·s

SMILES: CCCCCCCN
viscosity (303.15 K, 101 kPa): 0.8789 ± 0.0074 mPa·s

SMILES: CCCCN(CCO)CCCC
viscosity (303.15 K, 100 kPa): 4.6 mPa·s

viscosity (303.15 K, 101 kPa): 41.29 ± 0.6 mPa·s | viscosity (308.15 K, 101 kPa): 31.59 ± 0.49 mPa·s | viscosity (313.15 K, 101 kPa): 24.47 ± 0.37 mPa·s | viscosity (318.15 K, 101 kPa): 19.39 ± 0.29 mPa·s | viscosity (323.15 K, 101 kPa): 15.47 ± 0.25 mPa·s
SMILES: CCCCN(CCO)CCO

viscosity (298.15 K, 101 kPa): 196.2 ± 73 mPa·s | viscosity (313.15 K, 101 kPa): 80.85 ± 11 mPa·s | viscosity (323.15 K, 101 kPa): 50.22 ± 1.4 mPa·s
SMILES: CCCC[n+]1ccc(C)cc1.F[B-](F)(F)F

SMILES: CNN
viscosity (293.15 K, 101.3 kPa): 0.96 ± 0.03 mPa·s

viscosity (298.15 K, 100 kPa): 0.971 ± 0.059 mPa·s | viscosity (303.15 K, 100 kPa): 0.886 ± 0.05 mPa·s | viscosity (303.15 K, 101 kPa): 0.886 ± 0.023 mPa·s | viscosity (308.15 K, 101 kPa): 0.808 ± 0.022 mPa·s | viscosity (313.15 K, 100 kPa): 0.728 ± 0.05 mPa·s | viscosity (318.15 K, 101 kPa): 0.642 ± 0.019 mPa·s
SMILES: Cc1ccccc1Cl
viscosity (308.15 K, 100 kPa): 0.808 ± 0.05 mPa·s and 0.857 ± 0.052 mPa·s | viscosity (313.15 K, 101 kPa): 0.741 ± 0.012 mPa·s and 0.728 ± 0.02 mPa·s | viscosity (318.15 K, 100 kPa): 0.642 ± 0.05 mPa·s and 0.763 ± 0.046 mPa·s

SMILES: ClCCCCCl
viscosity (298.15 K, 101 kPa): 1.319 ± 0.012 mPa·s | viscosity (303.15 K, 101 kPa): 1.218 ± 0.011 mPa·s | viscosity (308.15 K, 101 kPa): 1.128 ± 0.011 mPa·s | viscosity (313.15 K, 101 kPa): 1.043 ± 0.0099 mPa·s

SMILES: NN
viscosity (293.15 K, 101.3 kPa): 0.94 ± 0.03 mPa·s | viscosity (303 K, 101 kPa): 0.85 ± 0.027 mPa·s | viscosity (313 K, 101 kPa): 0.75 ± 0.024 mPa·s

SMILES: Nc1cccc(Cl)c1
viscosity (298.15 K, 101 kPa): 3.495 ± 0.093 mPa·s | viscosity (303.15 K, 101 kPa): 3.256 ± 0.83 mPa·s

viscosity ([1]; 303.15 K, x1 = 0.009): 1.034 ± 0.066 mPa·s | viscosity ([1]; 303.15 K, x1 = 0.018): 1.36 ± 0.083 mPa·s | viscosity ([1]; 303.15 K, x1 = 0.029): 1.815 ± 0.11 mPa·s | viscosity ([1]; 303.15 K, x1 = 0.039): 2.492 ± 0.17 mPa·s | viscosity ([1]; 303.15 K, x1 = 0.05): 3.501 ± 0.23 mPa·s | viscosity ([1]; 303.15 K, x1 = 0.062): 4.954 ± 0.26 mPa·s | viscosity ([1]; 308.15 K, x1 = 0.009): 0.924 ± 0.059 mPa·s | viscosity ([1]; 308.15 K, x1 = 0.018): 1.217 ± 0.072 mPa·s | viscosity ([1]; 308.15 K, x1 = 0.029): 1.595 ± 0.096 mPa·s | viscosity ([1]; 308.15 K, x1 = 0.039): 2.167 ± 0.14 mPa·s | viscosity ([1]; 308.15 K, x1 = 0.05): 3.005 ± 0.19 mPa·s | viscosity ([1]; 308.15 K, x1 = 0.062): 4.223 ± 0.23 mPa·s | viscosity ([1]; 313.15 K, x1 = 0.009): 0.836 ± 0.052 mPa·s | viscosity ([1]; 313.15 K, x1 = 0.018): 1.093 ± 0.063 mPa·s | viscosity ([1]; 313.15 K, x1 = 0.029): 1.417 ± 0.083 mPa·s | viscosity ([1]; 313.15 K, x1 = 0.039): 1.91 ± 0.12 mPa·s | viscosity ([1]; 313.15 K, x1 = 0.05): 2.608 ± 0.16 mPa·s | viscosity ([1]; 313.15 K, x1 = 0.062): 3.646 ± 0.2 mPa·s | viscosity ([1]; 318.15 K, x1 = 0.009): 0.76 ± 0.046 mPa·s | viscosity ([1]; 318.15 K, x1 = 0.018): 0.98 ± 0.055 mPa·s | viscosity ([1]; 318.15 K, x1 = 0.029): 1.27 ± 0.073 mPa·s | viscosity ([1]; 318.15 K, x1 = 0.039): 1.695 ± 0.1 mPa·s | viscosity ([1]; 318.15 K, x1 = 0.05): 2.295 ± 0.14 mPa·s | viscosity ([1]; 318.15 K, x1 = 0.062): 3.173 ± 0.17 mPa·s | viscosity ([1]; 323.15 K, x1 = 0.009): 0.697 ± 0.042 mPa·s | viscosity ([1]; 323.15 K, x1 = 0.018): 0.9 ± 0.049 mPa·s | viscosity ([1]; 323.15 K, x1 = 0.029): 1.143 ± 0.063 mPa·s | viscosity ([1]; 323.15 K, x1 = 0.039): 1.516 ± 0.091 mPa·s | viscosity ([1]; 323.15 K, x1 = 0.05): 2.029 ± 0.12 mPa·s | viscosity ([1]; 323.15 K, x1 = 0.062): 2.777 ± 0.14 mPa·s
SMILES: CCC(N)C(=O)[O-].[Na+] (configuration not stated) + O
